Measurements published in PMC7470090, “Identification of probe-quality degraders for Poly(ADP-ribose) polymerase-1 (PARP-1)” (Journal of Enzyme Inhibition and Medicinal Chemistry, 2020).

These molecules were tested against T1, PARP-1 (Homo sapiens, UniProt P09874) (assay: cell-free PARP-1 inhibition assay, dose-response).
T1 construct: gene PARP1
Assay type: biochemical

T1 sequence (P09874 2-1014): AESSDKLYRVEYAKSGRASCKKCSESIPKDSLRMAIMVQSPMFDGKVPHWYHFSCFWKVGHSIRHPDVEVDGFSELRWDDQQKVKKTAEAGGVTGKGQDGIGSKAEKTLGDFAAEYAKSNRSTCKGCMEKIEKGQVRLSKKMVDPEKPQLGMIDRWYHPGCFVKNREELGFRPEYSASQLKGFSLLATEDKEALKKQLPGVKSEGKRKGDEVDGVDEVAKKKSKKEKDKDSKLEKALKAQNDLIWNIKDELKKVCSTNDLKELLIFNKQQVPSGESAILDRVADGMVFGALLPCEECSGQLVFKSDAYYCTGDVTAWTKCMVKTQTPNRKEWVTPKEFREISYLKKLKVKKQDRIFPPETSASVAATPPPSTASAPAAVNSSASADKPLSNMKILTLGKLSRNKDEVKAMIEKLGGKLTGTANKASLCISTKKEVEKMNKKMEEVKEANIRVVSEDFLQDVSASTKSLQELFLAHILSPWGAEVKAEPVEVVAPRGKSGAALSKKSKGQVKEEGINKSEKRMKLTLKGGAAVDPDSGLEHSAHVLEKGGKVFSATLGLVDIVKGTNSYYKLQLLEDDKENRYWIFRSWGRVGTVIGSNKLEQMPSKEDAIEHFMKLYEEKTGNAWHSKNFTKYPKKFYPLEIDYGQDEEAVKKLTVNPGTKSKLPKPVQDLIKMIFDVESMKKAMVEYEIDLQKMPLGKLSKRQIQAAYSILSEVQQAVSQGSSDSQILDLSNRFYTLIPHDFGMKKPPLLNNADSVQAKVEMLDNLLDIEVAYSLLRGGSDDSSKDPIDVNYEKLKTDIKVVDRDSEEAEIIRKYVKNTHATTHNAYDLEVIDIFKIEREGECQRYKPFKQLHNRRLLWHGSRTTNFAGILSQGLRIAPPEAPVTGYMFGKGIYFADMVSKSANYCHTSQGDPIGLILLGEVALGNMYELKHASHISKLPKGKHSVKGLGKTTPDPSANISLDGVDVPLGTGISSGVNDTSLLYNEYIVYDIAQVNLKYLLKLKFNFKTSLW

Compound	IC50 [nM]
O=C1CCC(N2Cc3c(NC(=O)CCCCCCCNC(=O)c4cc(Cc5n[nH]c(=O)c6ccccc56)ccc4F)cccc3C2=O)C(=O)N1 (stereo not drawn) [compound 1, N-(8-((2–(2,6-dioxopiperidin-3-yl)-1-oxoisoindolin-4-yl)amino)-8-oxooctyl)-2-fluoro-5-((4-oxo-3,4-dihydrophthalazin-1-yl)methyl)benzamide]	71.3
O=C1CCC(N2Cc3c(NC(=O)CCCCCCCCCCNC(=O)c4cc(Cc5n[nH]c(=O)c6ccccc56)ccc4F)cccc3C2=O)C(=O)N1 (stereo not drawn) [compound 2, N-(11-((2–(2,6-dioxopiperidin-3-yl)-1-oxoisoindolin-4-yl)amino)-11-oxoundecyl)-2-fluoro-5-((4-oxo-3,4-dihydrophthalazin-1-yl)methyl)benzamide]	54.7
O=C1CCC(N2Cc3c(NC(=O)CCCCCCCCCCCNC(=O)c4cc(Cc5n[nH]c(=O)c6ccccc56)ccc4F)cccc3C2=O)C(=O)N1 (stereo not drawn) [compound 3, N-(12-((2–(2,6-dioxopiperidin-3-yl)-1-oxoisoindolin-4-yl)amino)-12-oxododecyl)-2-fluoro-5-((4-oxo-3,4-dihydrophthalazin-1-yl)methyl)benzamide]	20.7
